According to US12410163B2, “Compounds as GLP-IR agonists” (Terns Pharmaceuticals, Inc., priority 2022, dated 2025):

Test system: human hepatocytes
Test: Metabolic stability in hepatocytes
Assay type: in vitro ADME
Conditions: 1 μM, 1×10^6 cells/mL, 0-240 min
Outline: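 Cryopreserved human hepatocytes at 1×10^6 cells/mL in DMEM were exposed to 1 μM compound (0.1% DMSO) for 0–240 min at 37 °C, 5% CO2. Parent loss quantified by LC-MS/MS; t1/2 = 0.693/k and CLint = k/cell density from semi-log % remaining versus time.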

hHep t1/2: > 8 h
SMILES: N#Cc1ccc(COc2cccc(N3CCN(Cc4nc5ccc(C(=O)O)cc5n4Cc4cncs4)[C@H]4C[C@H]43)n2)c(F)c1 (single isomer, unassigned) [Compound 2, 2-((5-(6-((4-Cyano-2-fluorobenzyl)oxy)pyridin-2-yl)-2,5-diazabicyclo[4.1.0]heptan-2-yl)methyl)-1-(thiazol-5-ylmethyl)-1H-benzo[d]imidazole-6-carboxylic Acid]
